Test results taken from EP0017976A2, “Process for preparing imidazole derivatives” (F. HOFFMANN-LA ROCHE & CO. Aktiengesellschaft, priority 1979, dated 1980).

What was measured:
[1] = tested on: Schistosoma mansoni; test: Schistosomicidal effect: share of living and dead worm pairs in liver vessels of infected mice, treated vs untreated; VD50 by probit method; assay type: in vivo; settings: mice infected with cercariae of Schistosoma mansoni; qualitative statement only, VD50 not given
Source text: Die schistosomicide Wirkung wurde ermittelt durch Vergleich des prozentualen Anteils lebender und toter Wurmpaare in den Gefässen der Leber sowohl bei mit Cercarien von Schistosoma mansoni infizierten, behandelten Mäusen als auch bei infizierten aber unbehandelten Kontrolltieren. Die Bestimmung der VD50 (Vermicide Dosis 50%: Dosis, die 50% der Wurmpaare abtötet) erfolgte nach der Probitmethode.

[2] = tested on: ventralen Prostata und der Samenblase; test: Antiandrogenic effect: weight decrease of ventral prostate and seminal vesicle in male sterilised rats; assay type: in vivo, Ratten; settings: qualitative statement only
Source text: Die antiandrogene Wirkung wurde durch Bestimmung der Gewichtsabnahme der ventralen Prostata und der Samenblase von männlichen sterilisierten Ratten ermittelt.

Compound | schistosomicide Wirkung [1] | antiandrogene Wirkung [2]
CC1(C)NC(=O)N(c2ccc(F)c(C(F)(F)F)c2)C1=N [1-(3-Trifluormethyl-4-fluor-phenyl)-5-imino-4,4-dimethyl-2-imidazolidinon] | starken schistosomiciden Wirkung | 
CC1(C)NC(=O)N(c2ccc(F)c(Cl)c2)C1=O [3-(3-Chlor-4-fluor-phenyl)-5,5-dimethylhydantoin] |  | antiandrogen wirksame
CC1(C)NC(=O)N(c2ccc(F)c(C(F)(F)F)c2)C1=O [3-(3-Trifluormethyl-4-fluorphenyl)-5,5-dimethyl-hydantoin] | starken schistosomiciden Wirkung | 
